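Method: 48-hour compound exposure of cells in 96-well plates, five concentrations, linear interpolation of endpoints. Here, GI50 denotes the concentration required for 50% inhibition of growth.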 Calls of active or inactive are those of the source. Cut-off read from the data, not from the text of the source: active = GI50 up to about 1.1 µM and inactive = higher.
Legend:
Experiment in all cases: NCI tumour cell line growth inhibition, 48 h
A498 = tested on: A498
CAKI-1 = tested on: CAKI-1
DMS-114 = tested on: DMS-114
SF-295 = tested on: SF-295
OVCAR-8 = tested on: OVCAR-8
SNB-75 = tested on: SNB-75
SNB-78 = tested on: SNB-78
SR = tested on: SR
NCI-H23 = tested on: NCI-H23
HOP-92 = tested on: HOP-92
786-0 = tested on: 786-0
DLD-1 = tested on: DLD-1
HCC 2998 = tested on: HCC 2998
M19-MEL = tested on: M19-MEL

CC(C)=CC(=O)N1CCN(C(=O)C=C(C)C)CC1
GI50 (A498): > 100 µM (inactive)
GI50 (CAKI-1): > 100 µM (inactive)
GI50 (DMS-114): > 100 µM (inactive)
GI50 (SF-295): > 100 µM (inactive)
GI50 (OVCAR-8): > 100 µM (inactive)
GI50 (SNB-75): > 100 µM (inactive)
GI50 (SNB-78): > 100 µM (inactive)
GI50 (SR): > 100 µM (inactive)
GI50 (NCI-H23): > 100 µM (inactive)
GI50 (HOP-92): > 100 µM (inactive)
GI50 (786-0): > 100 µM (inactive)
GI50 (DLD-1): > 100 µM (inactive)
GI50 (HCC 2998): > 100 µM (inactive)
GI50 (M19-MEL): > 100 µM (inactive)

O=C1C2C3CC(C4C5C=CC(C5)C34)C2C2C3CC(C12)C1C2C=CC(C2)C31 (configuration not stated)
GI50 (A498): > 100 µM (inactive)
GI50 (CAKI-1): > 100 µM (inactive)
GI50 (DMS-114): > 100 µM (inactive)
GI50 (SF-295): > 100 µM (inactive)
GI50 (OVCAR-8): > 100 µM (inactive)
GI50 (SNB-75): > 100 µM (inactive)
GI50 (SNB-78): > 100 µM (inactive)
GI50 (SR): > 100 µM (inactive)
GI50 (NCI-H23): > 100 µM (inactive)
GI50 (HOP-92): > 100 µM (inactive)
GI50 (786-0): > 100 µM (inactive)
GI50 (DLD-1): > 100 µM (inactive)
GI50 (HCC 2998): > 100 µM (inactive)
GI50 (M19-MEL): > 100 µM (inactive)

COc1cc(CN[C@H]2CCc3cc(OC)c(OC)c(OC)c3-c3ccc(SC)c(=O)cc32)cc(OC)c1
GI50 (A498): 0.0306 µM (active)
GI50 (CAKI-1): 0.0566 µM (active)
GI50 (DMS-114): 0.0222 µM (active)
GI50 (SF-295): 0.0336 µM (active)
GI50 (OVCAR-8): 0.0481 µM (active)
GI50 (SNB-75): 0.0243 µM (active)
GI50 (SNB-78): 0.0538 µM (active)
GI50 (SR): < 0.01 µM (active)
GI50 (NCI-H23): 0.0286 µM (active)
GI50 (HOP-92): 0.187 µM (active)
GI50 (786-0): 0.0468 µM (active)
GI50 (DLD-1): 0.0411 µM (active)
GI50 (HCC 2998): 0.0319 µM (active)
GI50 (M19-MEL): 0.0308 µM (active)

Source: ChEMBL document CHEMBL1201862, “PubChem BioAssay data set” (2004)
